Tests used:
Assay in all cases: relative viability (nuclei count vs DMSO), 5 days (fraction); higher = more cells survive
[1] = system: NCI-H2023
Summary of the method: (§1)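 Values are medians from duplicate plates. Each reflects relative viability, defined as the nuclei count of treated wells over that of vehicle wells. Lung cancer cell lines in 1536-well plates were pin-tool dosed one day after seeding with one drug alone or with a fixed anchor-drug dose plus five library-drug doses (not always all listed) in √10 steps, then fixed, stained and imaged at 4× after 5 days.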

[2] = system: H3255
Summary of the method: as §1

[3] = system: NCI-H2405
Summary of the method: as §1

[4] = system: NCI-H2347
Summary of the method: as §1

[5] = system: NCI-H650
Summary of the method: as §1

[6] = system: SK-LU-1
Summary of the method: as §1

[7] = system: HOP-62
Summary of the method: as §1

[8] = system: NCI-H358
Summary of the method: as §1

[9] = system: NCI-H23
Summary of the method: as §1

[10] = system: NCI-H441
Summary of the method: as §1

[11] = system: NCI-H1395
Summary of the method: as §1

[12] = system: NCI-H2009
Summary of the method: as §1

[13] = system: BEN
Summary of the method: as §1

[14] = system: 201T
Summary of the method: as §1

[15] = system: NCI-H2342
Summary of the method: as §1

[16] = system: EMC-BAC-2
Summary of the method: as §1

[17] = system: CAL-12T
Summary of the method: as §1

[18] = system: ChaGo-K-1
Summary of the method: as §1

[19] = system: NCI-H1650
Summary of the method: as §1

[20] = system: NCI-H1734
Summary of the method: as §1

[21] = system: SW 900
Summary of the method: as §1

[22] = system: NCI-H522
Summary of the method: as §1

[23] = system: NCI-H1944
Summary of the method: as §1

[24] = system: HCC-15
Summary of the method: as §1

[25] = system: LU99A
Summary of the method: as §1

## Nc1cccc2c1CN(C1CCC(=O)NC1=O)C2=O (centres undefined) [Lenalidomide] + CC(=O)c1c(C)c2cnc(Nc3ccc(N4CCNCC4)cn3)nc2n(C2CCCC2)c1=O [Palbociclib] (partner 0.5 µM)
[1]; first compound 0.253 µM
  relative viability: 0.405
[1]; first compound 0.8 µM
  relative viability: 0.419
[1]; first compound 2.53 µM
  relative viability: 0.403
[1]; first compound 8 µM
  relative viability: 0.45
[2]; first compound 0.253 µM
  relative viability: 0.312
[2]; first compound 0.8 µM
  relative viability: 0.302
[2]; first compound 2.53 µM
  relative viability: 0.314
[2]; first compound 8 µM
  relative viability: 0.314
[3]; first compound 0.253 µM
  relative viability: 0.513
[3]; first compound 0.8 µM
  relative viability: 0.529
[3]; first compound 2.53 µM
  relative viability: 0.524
[3]; first compound 8 µM
  relative viability: 0.45
[4]; first compound 0.253 µM
  relative viability: 0.492
[4]; first compound 0.8 µM
  relative viability: 0.446
[4]; first compound 2.53 µM
  relative viability: 0.494
[4]; first compound 8 µM
  relative viability: 0.424
[5]; first compound 0.253 µM
  relative viability: 0.405
[5]; first compound 0.8 µM
  relative viability: 0.303
[5]; first compound 2.53 µM
  relative viability: 0.326
[5]; first compound 8 µM
  relative viability: 0.355
[6]; first compound 0.253 µM
  relative viability: 0.366
[6]; first compound 0.8 µM
  relative viability: 0.342
[6]; first compound 2.53 µM
  relative viability: 0.413
[6]; first compound 8 µM
  relative viability: 0.354
[7]; first compound 0.253 µM
  relative viability: 0.45
[7]; first compound 0.8 µM
  relative viability: 0.41
[7]; first compound 2.53 µM
  relative viability: 0.455
[7]; first compound 8 µM
  relative viability: 0.378
[8]; first compound 0.8 µM
  relative viability: 0.139
[8]; first compound 2.53 µM
  relative viability: 0.142
[8]; first compound 8 µM
  relative viability: 0.132
[9]; first compound 0.253 µM
  relative viability: 0.534
[9]; first compound 2.53 µM
  relative viability: 0.517
[9]; first compound 8 µM
  relative viability: 0.442
[10]; first compound 0.253 µM
  relative viability: 0.239
[10]; first compound 0.8 µM
  relative viability: 0.205
[10]; first compound 2.53 µM
  relative viability: 0.264
[10]; first compound 8 µM
  relative viability: 0.202
[11]; first compound 0.253 µM
  relative viability: 0.649
[11]; first compound 2.53 µM
  relative viability: 0.701
[11]; first compound 8 µM
  relative viability: 0.592
[12]; first compound 0.253 µM
  relative viability: 0.206
[12]; first compound 0.8 µM
  relative viability: 0.232
[12]; first compound 2.53 µM
  relative viability: 0.218
[12]; first compound 8 µM
  relative viability: 0.221
[13]; first compound 0.253 µM
  relative viability: 0.478
[13]; first compound 0.8 µM
  relative viability: 0.496
[13]; first compound 2.53 µM
  relative viability: 0.418
[13]; first compound 8 µM
  relative viability: 0.556
[14]; first compound 0.253 µM
  relative viability: 0.394
[14]; first compound 0.8 µM
  relative viability: 0.359
[14]; first compound 2.53 µM
  relative viability: 0.38
[14]; first compound 8 µM
  relative viability: 0.351
[15]; first compound 0.253 µM
  relative viability: 0.551
[15]; first compound 0.8 µM
  relative viability: 0.53
[15]; first compound 2.53 µM
  relative viability: 0.502
[15]; first compound 8 µM
  relative viability: 0.476
[16]; first compound 0.253 µM
  relative viability: 0.503
[16]; first compound 0.8 µM
  relative viability: 0.473
[16]; first compound 2.53 µM
  relative viability: 0.52
[16]; first compound 8 µM
  relative viability: 0.448
[17]; first compound 0.253 µM
  relative viability: 0.402
[17]; first compound 0.8 µM
  relative viability: 0.579
[17]; first compound 2.53 µM
  relative viability: 0.785
[17]; first compound 8 µM
  relative viability: 0.472
[18]; first compound 0.253 µM
  relative viability: 0.946
[18]; first compound 0.8 µM
  relative viability: 0.978
[18]; first compound 2.53 µM
  relative viability: 1.01
[18]; first compound 8 µM
  relative viability: 0.971
[19]; first compound 0.253 µM
  relative viability: 0.339
[19]; first compound 0.8 µM
  relative viability: 0.279
[19]; first compound 2.53 µM
  relative viability: 0.343
[19]; first compound 8 µM
  relative viability: 0.453
[20]; first compound 0.253 µM
  relative viability: 0.348
[20]; first compound 0.8 µM
  relative viability: 0.392
[20]; first compound 2.53 µM
  relative viability: 0.364
[20]; first compound 8 µM
  relative viability: 0.291
[21]; first compound 2.53 µM
  relative viability: 0.52
[21]; first compound 8 µM
  relative viability: 0.454
[22]; first compound 0.253 µM
  relative viability: 0.91
[22]; first compound 0.8 µM
  relative viability: 1
[22]; first compound 2.53 µM
  relative viability: 1.19
[22]; first compound 8 µM
  relative viability: 0.716
[23]; first compound 0.253 µM
  relative viability: 0.364
[23]; first compound 2.53 µM
  relative viability: 0.342
[23]; first compound 8 µM
  relative viability: 0.27
[24]; first compound 0.253 µM
  relative viability: 0.685
[24]; first compound 0.8 µM
  relative viability: 0.683
[24]; first compound 2.53 µM
  relative viability: 0.904
[24]; first compound 8 µM
  relative viability: 0.708
[25]; first compound 0.253 µM
  relative viability: 0.409
[25]; first compound 0.8 µM
  relative viability: 0.39
[25]; first compound 2.53 µM
  relative viability: 0.361
[25]; first compound 8 µM
  relative viability: 0.286
